Measured values taken from PubChem BioAssay (NCI).
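Grown in 96-well plates, cells were treated for 48 hours with each compound at five concentrations. Insufficient inhibition: endpoint recorded as highest concentration tested. TGI marks complete inhibition of growth.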

How the values were obtained:
Test in all cases: DTP human tumour cell line panel, 48 h
UACC-257 melanoma = system: UACC-257 melanoma
SW-620 colon = system: SW-620 colon
KM12 colon = system: KM12 colon
OVCAR-5 ovarian = system: OVCAR-5 ovarian
HCT-116 colon = system: HCT-116 colon
SN12C renal = system: SN12C renal
A498 renal = system: A498 renal
MDA-N = system: MDA-N
MDA-MB-231 breast = system: MDA-MB-231 breast
NCI/ADR-RES ovarian = system: NCI/ADR-RES ovarian
PC-3 prostate = system: PC-3 prostate
DU-145 prostate = system: DU-145 prostate

Structure (SMILES)	TGI (UACC-257 melanoma) [µM]	TGI (SW-620 colon) [µM]	TGI (KM12 colon) [µM]	TGI (OVCAR-5 ovarian) [µM]	TGI (HCT-116 colon) [µM]	TGI (SN12C renal) [µM]	TGI (A498 renal) [µM]	TGI (MDA-N) [µM]	TGI (MDA-MB-231 breast) [µM]	TGI (NCI/ADR-RES ovarian) [µM]	TGI (PC-3 prostate) [µM]	TGI (DU-145 prostate) [µM]
COc1ccccc1NC(=O)CC(=O)n1nc(-c2ccccc2)c(N=Nc2ccccc2[N+](=O)[O-])c1-c1ccccc1	> 100	> 100	> 100	> 100	> 100	> 100						
Cc1ccc(SC2C(C)(C)N(C(C)C)P2(=O)N(C(C)C)C(C)C)cc1 (configuration not stated)	67.5	> 50	> 100	> 100	> 63.4	> 100	> 100					
Cc1ccc(O)c(-c2cc(-c3ccccc3)nc(/N=C\c3ccccc3)n2)c1	> 100	> 100	> 100	> 100	> 100	> 100		> 100	> 100	85.6	> 100	> 100
CCOC(=O)c1ncn2c1[nH]c(=O)c1ccccc12		> 100	> 100	> 100	> 100	> 100						
CC(=O)C(CN(C)Cc1ccccc1)C(c1ccccc1)c1c(O)c2ccccc2oc1=O (configuration not stated)	> 100	> 100	> 100	> 100	> 100	> 100	> 100					
CCOC(=O)CCC(NC(=O)c1ccc(OCc2ccc3nc(OC)c(OC)nc3c2)cc1)C(=O)OCC (configuration not stated)	> 100	> 100	> 100	> 100	> 100	> 100	> 100	> 100			> 100	> 100
c1ccc(N=C2C(=Nc3ccccc3)N(C3CCCCC3)C(=NC3CCCCC3)N2c2ccccc2)cc1	> 100	> 100	> 100	> 100	> 100		> 100	> 100	> 100		> 100	
OC1=CN=C(C2CC2)Oc2ccccc21	> 100	> 100	> 100		> 100	> 100	> 100					
CC(=O)OCC1=C2C(OC(=O)C(C)C)CC3(COC(C)=O)OC3/C=C\C3(C)OC3C2OC1=O (configuration not stated)	> 100	> 100	> 100	> 100	> 100	> 100	> 100	> 100	> 100		> 100	> 100
Cc1ccc(C)c(NC(=O)/C(=N\N)C(c2cnc3ccc([N+](=O)[O-])cc3n2)[N+](=O)[O-])c1 (configuration not stated)	> 100	> 100	> 100	> 100	> 100	> 100	> 100	> 100	> 100	> 100	> 100	
c1ccc2c(c1)ccc1nc3ccccn3c12	> 100	> 100	> 100	> 100		> 100				> 100	> 100	> 100
Cc1ccc(S(=O)(=O)N/N=C2/C3C(CC2(C)C)C2(C)CCCC3(C)C2O)cc1 (configuration not stated)	33.3		35.1		33.9	36.5		37.9		94.6	29.7	> 100
CCCC(=O)n1[nH]c(=O)n(C(C)(C)C)c1=O	> 100	> 100	> 100	> 100	> 100	> 100		> 100	> 100	> 100	> 100	> 100
Cc1ccc(N(C)S(=O)(=O)c2ccccc2)cc1	> 100	> 100	> 100	> 100	> 100	> 100		> 100	> 100	> 100	> 100	> 100
CCCC1=NC(C(F)(F)F)(C(F)(F)F)N=C(N2CCOCC2)O1	> 100	> 100	> 100	> 100	> 100	> 100			> 100	> 100	> 100	> 100
c1ccc2c(c1)ncn2CCn1ccnc1		> 100	> 100	> 100		> 100	> 100		> 100	> 100	> 100	> 100
O=C(O)/C(=C/c1ccccc1[N+](=O)[O-])c1cccs1	> 100	> 100	> 100	> 100	> 100	> 100	> 100					
O=S(=O)(c1ccccc1)n1cnc(CCc2ccccc2)n1	> 100	> 100	> 100	> 100	> 100	> 100	> 100					
COC(=O)c1ccc(-n2c(C)nc(=O)c(-c3ccccc3)c2C)cc1	> 100	> 100	> 100	> 100	> 100	> 100	> 100		> 100	> 100	> 100	> 100
Cc1ccc(S(=O)(=O)C(C#N)c2nc3ccccc3nc2N2CCOCC2)cc1 (configuration not stated)	> 100	> 100	38.2	> 100	38.4	96.4	> 100					
COC(=O)NN/C=C(\C=Nc1ccccc1)[N+](=O)[O-]	> 100	> 100			> 100	> 100						
CC(=O)N1N=C(c2ccccc2Nc2ccccc2C2=NN(C(C)=O)C(c3ccccc3)O2)OC1c1ccccc1 (configuration not stated)		> 100		> 100	> 100	> 100		> 100	> 100	> 100	> 100	> 100
CCNC(=S)Nc1c(C#N)c2n(c1C(=O)OCC)CCCCC2	> 100	> 100	> 100		> 100		> 100		> 100	> 100	> 100	> 100
CC(C)(C)c1cc(Oc2ccc(C#N)c(C#N)c2)cc(C(C)(C)C)c1	> 100		> 100	> 100	> 100	> 100	> 100					
C=C(C)C1Cc2c(cc(OC)c3c(=O)c4ccccc4n(C)c23)O1 (configuration not stated)	> 100	> 100	> 100	> 100	> 100	> 100	> 100					
